For `COC(=O)C(=C(/C)c1ccc(C(=O)O)cc1)/C(=C\c1cccc(OC)c1)C(=O)Nc1ccnc(C)c1.Cl`, the melting point (usually the temperature, or range, at which the solid turns liquid) was 232 °C (dec.).

The values above are taken from US20040180938A1, “Novel butadiene derivatives, process for preparation of the same and intermediates for the synthesis thereof” (priority 2001, published 2004).
